The values that follow come from US20220062299A1, “USE OF GLUCOCORTICOID STEROIDS IN PREVENTING AND TREATING CONDITIONS OF MUSCLE WASTING, AGING AND METABOLIC DISORDER” (NORTHWESTERN UNIVERSITY, priority 2018, published 2022).

Structures are written as SMILES.

Data set [1] deals with mdx muscles. Description: Muscle metabolomics of mdx quadriceps. It counts as in vivo, mouse. The note with it: 4 wk exposure. As to the method: Muscle metabolomics. Total hydrophilic metabolite content was extracted from quadriceps muscle tissue at treatment endpoint through methanol-water (80:20) extraction, adapting conditions described previously (Bruno et al., 2018). Briefly, total metabolite content from quadriceps muscle was obtained from approximately 100 mg (wet weight) quadriceps muscle tissue per animal. Frozen (−80° C.) muscle was pulverized in liquid nitrogen and homogenized with approximately 250 μl 2.3 mm zirconia/silica beads (Cat #11079125z, BioSpec, Bartlesville, Okla.) in 1 ml methanol/water 80:20 (vol/vol) by means of Mini-BeadBeater-16 (Cat #607, Biospec, Bartlesville, Okla.) for 1 minute. After centrifuging at 5000 rpm for 5 minutes, 200 μl of supernatant were transferred into a tube pre-added with 800 μL of ice-cold methanol/water 80% (vol/vol). Samples were vortexed for 1 minute, and then centrifuged at approximately 20,160×g for 15 minutes at 4° C. Metabolite-containing extraction solution was then dried using SpeedVac (medium power). 200 ul of 50% Acetonitrile were added to the tube for reconstitution following by overtaxing for 1 minute. Samples solution were then centrifuged for 15 minutes at 20,000 g, 4° C. Supernatant was collected for LC-MS analysis for Hydrophilic Metabolites Profiling as follows. Samples were analyzed by High-Performance Liquid Chromatography and High-Resolution Mass Spectrometry and Tandem Mass Spectrometry (HPLC-MS/MS). Specifically, system consisted of a Thermo Q-Exactive in line with an electrospray source and an Ultimate3000 (Thermo) series HPLC consisting of a binary pump, degasser, and auto-sampler outfitted with a Xbridge Amide column (Waters; dimensions of 4.6 mm×100 mm and a 3.5 μm particle size). The mobile phase A contained 95% (vol/vol) water, 5% (vol/vol) acetonitrile, 20 mM ammonium hydroxide, 20 mM ammonium acetate, pH=9.0; B was 100% Acetonitrile. […] The capillary of the ESI source was set to 275° C., with sheath gas at 45 arbitrary units, auxiliary gas at 5 arbitrary units and the spray voltage at 4.0 kV. In positive/negative polarity switching mode, an m/z scan range from 70 to 850 was chosen and MS1 data was collected at a resolution of 70,000. The automatic gain control (AGC) target was set at 1×10^6 and the maximum injection time was 200 ms. The top 5 precursor ions were subsequently fragmented, in a data-dependent manner, using the higher energy collisional dissociation (HCD) cell set to 30% normalized collision energy in MS2 at a resolution power of 17,500. The sample volumes of 25 μl were injected. Data acquisition and analysis were carried out by Xcalibur 4.0 software and Tracefinder 2.1 software, respectively (both from Thermo Fisher Scientific). Metabolite levels were analyzed as peak area normalized to wet tissue weight and total […] content. Gene-metabolite pathway enrichment was conducted using the MetaboAnalyst platform (v4.0; Joint Pathway Analysis mode) (Chong et al., 2018). Pulsatile glucocorticoid exposure enhanced mitochondrial respiration in dystrophic muscle through BCAA. […] This correlated with increased catabolism of BCAAs, seen as reduced levels of precursors and intermediates and increased levels of oxoglutarate and succinate in the TCA cycle (FIG. 1B, center). […] Opposing shifts were confirmed by HPLC analyses of muscle ATP and NAD^+and by resting blood lactate (FIGS. 5A and 5B), and these changes correlated with parallel shifts in muscle glycogen content (FIG. 5C).

Data set [2] relates to Dysf-null mice. As to the kind of experiment: Body weight, muscle mass, muscle function, plethysmography, echocardiography, Dysf-null mice, 32 weeks. Type of data set: in vivo, mouse. The note with it: weekly prednisone. The procedure:
Histology. Excised tissues (muscles, omental fat, heart) were placed in 10% formaldehyde (Cat #245-684; Fisher Scientific, Waltham, Mass.) for histologic processing. Seven μm sections from the center of paraffin-embedded muscles were stained with hematoxylin and eosin (H&E; cat #12013B, 1070C; Newcomer Supply, Middleton, Wis.) and Masson's trichrome (Cat #HT-15; Sigma-Aldrich; St. Louis, Mo.). Myofiber/adipocyte CSA quantitation was conducted on 400 myofibers/adipocytes per tissue per mouse. Imaging was performed using a Zeiss Axio Observer A1 microscope, using 10× and 20× (short-range) objectives. Brightfield pictures were acquired via Gryphax software (version 1.0.6.598; Jenoptik, Jena, Germany). Area quantitation was performed by means of ImageJ (Schneider et al., 2012). Sample processing, imaging and CSA quantitation were conducted blinded to treatment groups.
Muscle function, whole-body plethysmography, echocardiography. Forelimb grip strength was monitored using a meter (Cat #1027SM; Columbus Instruments, Columbus, Ohio) blinded to treatment groups. Animals performed ten pulls with 5 seconds rest on a flat surface between pulls. Immediately before sacrifice, in situ tetanic force from tibialis anterior muscle was measured using a Whole Mouse Test System (Cat #1300A; Aurora Scientific, Aurora, ON, Canada) with a 1N dual-action lever arm force transducer (3000-LR, Aurora Scientific, Aurora, ON, Canada) in anesthetized animals (0.8 I/min of 1.5% isoflurane in 100% O2). […] Time of contraction was assessed as time to max tetanic value within the 0.0-0.5 sec range of each tetanic contraction, while time of relaxation was assessed as time to 90% min tetanic value within the 0.5-0.8 sec range of every tetanus. […] Data was recorded for a total of 15 minutes broken into 3 consecutive 5-minute periods. […] Cardiac function was assessed by echocardiography, which was conducted under anesthesia (0.8 L/min of 1.5% vaporized isoflurane in 100% O2) on mice between 2 and 5 days before sacrifice. […]

For the compound `C[C@]12C=CC(=O)C=C1CC[C@@H]1[C@@H]2C(=O)C[C@@]2(C)[C@H]1CC[C@]2(O)C(=O)CO` [prednisone, Prednisone], in data set [1] (daily prednisone), the “BCAA and glucose catabolism” value is “substantial impairment”; the “NAD+ and NADH in muscle” value was “loss”. Besides, in data set [1] (weekly prednisone), the “Glycolysis (levels of pyruvate and lactate)” value is reported as “increased”; the “catabolism of BCAAs” value is on record as “increased”. Further, the “ATP, phosphocreatine, and NAD+ in muscle” value in data set [1] (weekly prednisone, vs vehicle) is listed as “increased”. In data set [2], the body weight trend entry is given as “did not induce significant changes”; the muscle mass entry is listed as “increased”; the “performance of limb muscles, respiratory muscles, and heart” value is reported as “improved”.
